Tests used:
[1] = target: Carbonic anhydrase 12 (Homo sapiens, UniProt O43570)
Description: Inhibition of human carbonic anhydrase 12 by stopped flow CO2 assay

[2] = target: Carbonic anhydrase 9 (Homo sapiens, UniProt Q16790); assay: Inhibition of human carbonic anhydrase 9 by stopped flow CO2 assay
[3] = target: Carbonic anhydrase 2 (Homo sapiens, UniProt P00918); assay: Inhibition of human carbonic anhydrase 2 by stopped flow CO2 assay
[4] = target: Carbonic anhydrase 1 (Homo sapiens, UniProt P00915); assay: Inhibition of human carbonic anhydrase 1 by stopped flow CO2 assay
Chain of Carbonic anhydrase 1 (P00915 whole entry): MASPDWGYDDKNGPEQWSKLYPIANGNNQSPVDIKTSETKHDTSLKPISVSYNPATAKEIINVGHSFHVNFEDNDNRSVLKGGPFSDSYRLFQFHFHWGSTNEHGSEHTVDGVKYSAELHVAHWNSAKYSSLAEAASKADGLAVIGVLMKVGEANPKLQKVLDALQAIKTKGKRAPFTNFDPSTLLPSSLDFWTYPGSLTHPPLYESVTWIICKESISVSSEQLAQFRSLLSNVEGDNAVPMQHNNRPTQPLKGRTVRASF

Chain of Carbonic anhydrase 12 (O43570 whole entry): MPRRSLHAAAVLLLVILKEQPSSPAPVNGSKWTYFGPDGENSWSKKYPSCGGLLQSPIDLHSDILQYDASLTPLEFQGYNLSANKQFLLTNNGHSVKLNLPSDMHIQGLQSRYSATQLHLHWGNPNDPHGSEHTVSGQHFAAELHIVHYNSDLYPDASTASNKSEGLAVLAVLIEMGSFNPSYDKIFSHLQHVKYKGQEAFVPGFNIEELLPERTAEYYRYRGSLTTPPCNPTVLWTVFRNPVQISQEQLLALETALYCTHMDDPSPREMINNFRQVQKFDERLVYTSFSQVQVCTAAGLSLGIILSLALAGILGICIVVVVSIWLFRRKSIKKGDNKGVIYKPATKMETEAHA

Row | SMILES | Ki [1] | Ki [2] | Ki [3] | Ki [4]
1 | Cn1cc(S(N)(=O)=O)c2cc(NC(=O)c3cc(-c4ccccc4)nc4ccccc34)ccc21 | > 100 µM | 82.4 µM | > 100 µM | > 100 µM
2 | CCn1cc(S(N)(=O)=O)c2cc(NC(=O)c3ccnc(N)c3)ccc21 | > 100 µM | 19.8 µM | > 100 µM | > 100 µM
3 | Cn1cc(S(N)(=O)=O)c2cc(NC(=O)c3cc(-c4ccc(Cl)cc4)nc4ccccc34)ccc21 | > 100 µM | 18.5 µM |  | > 100 µM
4 | Cn1cc(S(N)(=O)=O)c2cc(NC(=O)c3ccnc(Br)c3)ccc21 |  | 8.16 µM | > 100 µM | > 100 µM
5 | COc1ccc2nc(-c3ccccc3OC)cc(C(=O)Nc3ccc4c(c3)c(S(N)(=O)=O)cn4C)c2c1 | > 100 µM | 38.9 µM | > 100 µM | > 100 µM
6 | CCn1cc(S(N)(=O)=O)c2cc(NC(=O)c3cc(-c4ccccc4)nc4ccccc34)ccc21 | > 100 µM | > 100 µM | > 100 µM | > 100 µM
7 | CCn1cc(S(N)(=O)=O)c2cc(NC(=O)c3cc(-c4ccccc4Cl)nc4ccccc34)ccc21 |  | 1.57 µM |  | > 100 µM
8 | CCn1cc(S(N)(=O)=O)c2cc(NC(=O)c3cc(-c4ccc(Cl)cc4)nc4ccccc34)ccc21 |  | 5.56 µM |  | > 100 µM
9 | Cn1cc(S(N)(=O)=O)c2cc(NC(=O)c3ccnc(N)c3)ccc21 | > 100 µM | 34.6 µM | > 100 µM | > 100 µM
10 | CCn1cc(S(N)(=O)=O)c2cc(NC(=O)c3cc(-c4ccccc4)nc4ccc(OC)cc34)ccc21 | > 100 µM | 40.2 µM | > 100 µM | > 100 µM
11 | CCn1cc(S(N)(=O)=O)c2cc(NC(=O)c3cc(-c4ccc(OC)c(OC)c4)nc4ccccc34)ccc21 | > 100 µM | 35.8 µM | > 100 µM | > 100 µM
12 | CCn1cc(S(N)(=O)=O)c2cc(NC(=O)c3ccnc(O)c3)ccc21 |  | 5.33 µM | > 100 µM | > 100 µM
13 | CCn1cc(S(N)(=O)=O)c2cc(NC(=O)c3ccnc(Cl)c3)ccc21 |  | 5.93 µM |  | > 100 µM
14 | Cn1cc(S(N)(=O)=O)c2cc(NC(=O)c3cc(Cl)nc(Br)c3)ccc21 | > 100 µM | 15.9 µM | > 100 µM | > 100 µM
15 | COc1ccc2nc(-c3ccccc3)cc(C(=O)Nc3ccc4c(c3)c(S(N)(=O)=O)cn4C)c2c1 | > 100 µM | 45 µM | > 100 µM | > 100 µM
16 | CCn1cc(S(N)(=O)=O)c2cc(NC(=O)c3cc(Cl)nc(Br)c3)ccc21 |  | 8.78 µM |  | > 100 µM
17 | CCn1cc(S(N)(=O)=O)c2cc(NC(=O)c3cc(-c4ccccc4C)nc4ccc(OC)cc34)ccc21 |  | 8.65 µM |  | > 100 µM
18 | CCn1cc(S(N)(=O)=O)c2cc(NC(=O)c3cc(-c4ccccc4OC)nc4ccc(OC)cc34)ccc21 | > 100 µM | 26.7 µM | > 100 µM | > 100 µM
19 | CCn1cc(S(N)(=O)=O)c2cc(NC(=O)c3cc(-c4ccc5c(c4)OCO5)nc4ccccc34)ccc21 |  | 7.51 µM |  | > 100 µM
20 | CCn1cc(S(N)(=O)=O)c2cc(NC(=O)c3cc(-c4ccc(OC)cc4OC)nc4ccc(OC)cc34)ccc21 | > 100 µM | 59.5 µM |  | > 100 µM
21 | CCn1cc(S(N)(=O)=O)c2cc(NC(=O)c3ccncc3)ccc21 | > 100 µM | 21.6 µM | > 100 µM | > 100 µM
22 | Cn1cc(S(N)(=O)=O)c2cc(NC(=O)c3ccnc(Cl)c3)ccc21 |  | 5.93 µM | > 100 µM | > 100 µM
23 | CCn1cc(S(N)(=O)=O)c2cc(NC(=O)c3cc(-c4cc(Cl)cc(Cl)c4)nc4ccc(OC)cc34)ccc21 |  | 4.23 µM |  | > 100 µM
24 | CCn1cc(S(N)(=O)=O)c2cc(NC(=O)c3cc(-c4ccc(Cl)cc4Cl)nc4ccccc34)ccc21 |  | 1.47 µM |  | > 100 µM
25 | COc1ccc(-c2cc(C(=O)Nc3ccc4c(c3)c(S(N)(=O)=O)cn4C)c3ccccc3n2)cc1OC | > 100 µM | 69.3 µM | > 100 µM | > 100 µM
26 | CCn1cc(S(N)(=O)=O)c2cc(NC(=O)c3ccnc(Br)c3)ccc21 |  | 8.21 µM |  | > 100 µM
27 | Cn1cc(S(N)(=O)=O)c2cc(NC(=O)c3ccnc(O)c3)ccc21 |  | 9.05 µM | > 100 µM | > 100 µM
28 | COc1ccc2nc(-c3ccccc3C)cc(C(=O)Nc3ccc4c(c3)c(S(N)(=O)=O)cn4C)c2c1 | > 100 µM | 16.3 µM |  | > 100 µM

From ChEMBL document CHEMBL5126575, “Synthesis of a new series of quinoline/pyridine indole-3-sulfonamide hybrids as selective carbonic anhydrase IX inhibitors” (Bioorg Med Chem Lett, 2022)
